In patent US4292241A, “Antibiotic PA-31088-IV and production thereof” (Shionogi & Co., Ltd., priority 1979, dated 1981):
Values belong to the compound of their own block, whether it stands above or below them.

Experiments:
P. vulgaris 50 = experiment: Synergistic activity with other β-lactam antibiotics (MIC); assay type: cell-based
Description: (§1) (c) Synergistic activity with other β-lactam antibiotics

S. marcescens 39 = experiment: as above; assay type: cell-based
Description: as §1

S. aureus 2132 = experiment: as above; assay type: cell-based
Enterobactor cloacae 233 = experiment: Antibacterial spectrum (MIC); assay type: cell-based; conditions: inoculum one loopful of 10^6 cfu/ml
Description: (§2) (a) Antibacterial spectrum | Inoculum size = one loopful of 10^6 cfu/ml

[1] = test system: Escherichia coli NIHJ JC-2; experiment: Antibacterial spectrum (MIC); assay type: cell-based; conditions: inoculum one loopful of 10^6 cfu/ml
Description: as §2

[2] = test system: Klebsiella pneumoniae SRL-1; experiment: Antibacterial spectrum (MIC); assay type: cell-based; conditions: inoculum one loopful of 10^6 cfu/ml
Description: as §2

Klebsiella sp. 363 (R) = experiment: Antibacterial spectrum (MIC); assay type: cell-based; conditions: inoculum one loopful of 10^6 cfu/ml
Description: as §2

Proteus mirabilis PR-4 = experiment: Antibacterial spectrum (MIC); assay type: cell-based; conditions: inoculum one loopful of 10^6 cfu/ml
Description: as §2

[3] = test system: Pseudomonas aeruginosa ATCC 25619; experiment: Antibacterial spectrum (MIC); assay type: cell-based; conditions: inoculum one loopful of 10^6 cfu/ml
Description: as §2

[4] = test system: Serratia marcescens ATCC 13880; experiment: Antibacterial spectrum (MIC); assay type: cell-based; conditions: inoculum one loopful of 10^6 cfu/ml
Description: as §2

[5] = test system: Staphylococcus aureus 209P JC-1; experiment: Antibacterial spectrum (MIC); assay type: cell-based; conditions: inoculum one loopful of 10^6 cfu/ml
Description: as §2

[6] = test system: Streptococcus pneumoniae I; experiment: Antibacterial spectrum (MIC); assay type: cell-based; conditions: inoculum one loopful of 10^6 cfu/ml
Description: as §2

[7] = biological target: lactamase of cephalosporinase type (Enterobactor cloacae 92) (Enterobacter cloacae, UniProt P05364); experiment: β-Lactamase inhibitory activity; assay type: biochemical; conditions: β-lactamase producing bacteria Enterobactor cloacae 92, cephalosporinase type
lactamase of cephalosporinase type (Enterobactor cloacae 92), sequence (P05364 21-381): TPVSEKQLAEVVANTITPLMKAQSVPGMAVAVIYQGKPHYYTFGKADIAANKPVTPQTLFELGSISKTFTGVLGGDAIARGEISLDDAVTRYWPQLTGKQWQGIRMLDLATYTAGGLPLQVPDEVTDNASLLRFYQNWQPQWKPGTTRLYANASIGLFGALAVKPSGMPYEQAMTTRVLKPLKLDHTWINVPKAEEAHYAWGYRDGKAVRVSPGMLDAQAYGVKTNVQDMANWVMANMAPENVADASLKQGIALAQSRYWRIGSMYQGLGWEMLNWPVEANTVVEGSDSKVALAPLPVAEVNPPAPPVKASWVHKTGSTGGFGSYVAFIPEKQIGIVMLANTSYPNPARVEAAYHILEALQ
Description: (§3) (b) β-Lactamase inhibitory activity
*produces lactamase of cephalosporinase type

[8] = test system: lactamase of penicillinase type (Klebsiella sp. 363); experiment: β-Lactamase inhibitory activity; assay type: biochemical; conditions: β-lactamase producing bacteria Klebsiella sp. 363, penicillinase type
Description: as §3
**produces lactamase of penicillinase type

MIC of Ampicillin (P. vulgaris 50; PA-31088-IV 0 μg/ml): > 200 µg/mL
MIC of Ampicillin (P. vulgaris 50; with PA-31088-IV 2.5 μg/ml): 6.3 µg/mL
MIC of Ampicillin (P. vulgaris 50; with PA-31088-IV 10 μg/ml): 1.6 µg/mL
MIC of Ampicillin (S. marcescens 39; PA-31088-IV 0 μg/ml): > 200 µg/mL
MIC of Ampicillin (S. marcescens 39; with PA-31088-IV 2.5 μg/ml): 3.1 µg/mL
MIC of Ampicillin (S. marcescens 39; with PA-31088-IV 10 μg/ml): 0.1 µg/mL
SMILES: CC1(C)S[C@@H]2[C@H](NC(=O)[C@H](N)c3ccccc3)C(=O)N2[C@H]1C(=O)O [Ampicillin, ampicillin]

MIC of Cefazolin (S. aureus 2132; PA-31088-IV 0 μg/ml): 6.3 µg/mL
MIC of Cefazolin (S. aureus 2132; with PA-31088-IV 2.5 μg/ml): 0.8 µg/mL
MIC of Cefazolin (S. aureus 2132; with PA-31088-IV 10 μg/ml): 0.4 µg/mL
MIC of Cefazolin (P. vulgaris 50; PA-31088-IV 0 μg/ml): > 200 µg/mL
MIC of Cefazolin (P. vulgaris 50; with PA-31088-IV 2.5 μg/ml): 6.3 µg/mL
MIC of Cefazolin (P. vulgaris 50; with PA-31088-IV 10 μg/ml): 3.1 µg/mL
MIC of Cefazolin (S. marcescens 39; PA-31088-IV 0 μg/ml): > 200 µg/mL
MIC of Cefazolin (S. marcescens 39; with PA-31088-IV 2.5 μg/ml): 6.3 µg/mL
MIC of Cefazolin (S. marcescens 39; with PA-31088-IV 10 μg/ml): 0.4 µg/mL
SMILES: Cc1nnc(SCC2=C(C(=O)O)N3C(=O)[C@@H](NC(=O)Cn4cnnn4)[C@H]3SC2)s1 [Cefazolin, cefazolin]

Minimum Inhibitory Concentration (β-lactamase inhibitory activity) [7]: 0.98 µg/mL
Minimum Inhibitory Concentration (β-lactamase inhibitory activity) [8]: 0.06 µg/mL
MIC of PA-31088-IV (S. aureus 2132; PA-31088-IV alone): > 10 µg/mL
MIC of PA-31088-IV (P. vulgaris 50; PA-31088-IV alone): > 10 µg/mL
MIC of PA-31088-IV (S. marcescens 39; PA-31088-IV alone): > 10 µg/mL
SMILES: CC(=O)NC=CS(=O)(=O)C1=C(C(=O)O)N2C(=O)C(=C(C)CO)C2C1 (centres unmarked) [PA-31088-IV, 3-[(2-acetamidoethylene)sulfonyl]-6-(2-hydroxy-1-methylethylidene)-7-oxo-1-azabicyclo[3.2.0]hept-2-ene-2-carboxylic acid]
Minimum Inhibitory Concentration (Enterobactor cloacae 233): 3.13 µg/mL
Minimum Inhibitory Concentration [1]: 3.13 µg/mL
Minimum Inhibitory Concentration [2]: 1.56 µg/mL
Minimum Inhibitory Concentration (Klebsiella sp. 363 (R)): 3.13 µg/mL
Minimum Inhibitory Concentration (Proteus mirabilis PR-4): 6.25 µg/mL
Minimum Inhibitory Concentration [3]: 50 µg/mL
Minimum Inhibitory Concentration [4]: 12.5 µg/mL
Minimum Inhibitory Concentration [5]: 3.13 µg/mL
Minimum Inhibitory Concentration [6]: 0.39 µg/mL
